Data published in patent US10160747B2, “Compounds and methods for kinase modulation, and indications therefor” (Plexxikon Inc., priority 2016, dated 2018).

What was measured:
[1] = system: MOLM-14 D835Y (endogenous FLT3 ITD and transfected FLT3 D835Y); experiment: MOLM-14 D835Y cell proliferation assay (CellTiter-Glo); type: cell-based; conditions: Homo sapiens, MOLM-14, 72 h; 3 d growth, GMean
Source text: (§1) The FLT3 inhibitors may be assessed using the MOLM-14, Acute Myeloid Leukemia cell line that endogenously expresses FLT3 ITD or derivatives of the human FLT3 AML cell line which acquired the D835Y (activation loop) of F691L (gatekeeper) mutation after selection in escalating doses of the FLT3 Inhibitor AC220. FLT3 inhibitors may also be assessed using cells that are engineered to express mutant FLT3. For engineered cells, murine Ba/F3 cells were transfected with full-length FLT3 ITD/D835Y mutations. The parental BA/F3 cells are dependent upon Interleukin-3 (IL-3) for survival, and introduction of the FLT3 constructs rendered these cells dependent upon FLT3 kinase activity when cultured in the absences of IL-3. Engineered BA/F3 cell growth assays can be performed in either the […] of IL-3, to assess the compound inhibition of FLT3 or to detect the presence of off-target activity, respectively. Inhibitors of FLT3 kinase activity reduce or eliminate the FLT3 oncogenic signaling, resulting in reduced cell proliferation. This inhibition is measured as a function of compound concentration to assess IC50 values.
(§2) Cell lines used in proliferation assays are as follows in Table 2:
(§3) Cells were seeded at 1×10^4 cells per well of a 96 well cell culture plate in 50 μl of cell culture medium. Compounds were dissolved in DMSO, typically at a concentration of 0.5 mM and were serially diluted 1:3 for a total of eight points and added to the cells to final concentrations of […], 0.0041, 0.0014 and 0.00046 μM in 100 μl cell culture medium (final concentration 0.2% DMSO). […] The cells were incubated at 37° C., 5% CO2 for three days. CellTiter-Glo Buffer (Promega Cell Viability Assay catalog #G7573) and substrate were equilibrated to room temperature, and enzyme/substrate Recombinant Firefly Luciferase/Beetle Luciferin was reconstituted. The cell plates were equilibrated to room temperature for 30 minutes, then lysed by addition of an equivalent volume of the Celltiter-Glo Reagent. The plate was mixed for 10 minutes on a plate shaker to lyse the cells. The plates were read on a Tecan M1000 using Luminescence protocol modified to read 0.1 s per well. The luminescence reading assesses the ATP content, which correlates directly with cell number such that the reading as a function of compound concentration was used to determine the IC50 value.

[2] = system: MOLM-14 F691L (endogenous FLT3 ITD and transfected FLT3 F691L); experiment: MOLM-14 F691L cell proliferation assay (CellTiter-Glo); type: cell-based; conditions: Homo sapiens, MOLM-14, 72 h; 3 d growth, GMean
Source text: as §1, §2, §3

[3] = target: T1, BA/F3-FLT3-ITD + D835Y (Homo sapiens, UniProt P36888, D835Y, cells depend on it, form not given); experiment: Engineered BA/F3 cell growth assay, FLT3 ITD/D835Y; type: cell-based, murine; conditions: 3 d growth
T1 sequence (P36888 with tags, fused parts or gaps INS600HVDFREYEYD/D835Y): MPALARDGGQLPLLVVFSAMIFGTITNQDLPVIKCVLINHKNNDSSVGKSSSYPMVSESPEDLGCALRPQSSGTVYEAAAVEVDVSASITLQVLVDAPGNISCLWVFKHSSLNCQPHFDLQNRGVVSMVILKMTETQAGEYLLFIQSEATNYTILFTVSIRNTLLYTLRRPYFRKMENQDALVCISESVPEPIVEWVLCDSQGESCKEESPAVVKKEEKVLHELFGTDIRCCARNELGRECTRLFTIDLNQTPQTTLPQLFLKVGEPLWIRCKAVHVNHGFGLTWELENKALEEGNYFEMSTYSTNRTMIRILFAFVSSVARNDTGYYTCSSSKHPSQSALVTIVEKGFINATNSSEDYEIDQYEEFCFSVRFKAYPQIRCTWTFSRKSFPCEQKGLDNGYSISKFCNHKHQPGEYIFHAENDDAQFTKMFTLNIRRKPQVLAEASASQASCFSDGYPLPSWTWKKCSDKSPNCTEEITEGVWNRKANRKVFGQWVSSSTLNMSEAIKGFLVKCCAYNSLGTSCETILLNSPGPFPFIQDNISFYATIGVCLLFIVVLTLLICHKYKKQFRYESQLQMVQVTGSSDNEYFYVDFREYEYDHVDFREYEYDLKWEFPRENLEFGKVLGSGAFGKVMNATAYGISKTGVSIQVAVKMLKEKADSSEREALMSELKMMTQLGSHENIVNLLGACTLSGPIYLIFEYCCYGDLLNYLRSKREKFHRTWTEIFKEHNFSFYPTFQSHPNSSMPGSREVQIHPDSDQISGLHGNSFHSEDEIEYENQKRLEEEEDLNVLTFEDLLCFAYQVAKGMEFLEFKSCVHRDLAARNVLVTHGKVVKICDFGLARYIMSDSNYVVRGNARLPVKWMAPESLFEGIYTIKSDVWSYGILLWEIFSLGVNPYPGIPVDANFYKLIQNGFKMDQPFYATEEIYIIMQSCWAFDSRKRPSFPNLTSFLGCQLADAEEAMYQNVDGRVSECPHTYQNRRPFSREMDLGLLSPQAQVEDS
Source text: as §1, §2, §3
The BaF3 assays as developed used to generate the data in Tables 7 and 8 are identical and differ only in minor details in regards to vector design, not biological function. Both introduce the FLT3 gene with MV4-11 based ITD duplications and resistance mutations from an exogenous promoter (MSCV and CMV respectively) in the exact same cell line.
As a result of the expressed FLT3 protein, the IL3 factor dependent BaF3 cell clones become IL3-factor independent.
The compounds in Tables 7 and 8 were tested in an identical fashion by incubating such clones in with increasing concentrations. Inhibition of the FLT3 activity by an inhibitor results in factor dependency, which in the absence of IL3 results in cell death in the three day growth assays.

COc1ccc(-c2cc3cc(-c4ccc(CC(=O)Nc5cnc(OC)c(C(F)(F)F)c5)c(F)c4)cnc3[nH]2)cn1 [Compound P-0007, 2-[2-fluoro-4-[2-(6-methoxy-3-pyridyl)-1H-pyrrolo[2,3-b]pyridin-5-yl]phenyl]-N-[6-methoxy-5-(trifluoromethyl)-3-pyridyl]acetamide]
0.0001 to 10 µM: IC50 [1] | IC50 [2] | GI50 [3]

Cc1noc2ncc(NC(=O)Cc3ccc(-c4cnc(Nc5cnn(C)c5)nc4)cc3)cc12 [Compound P-0130, N-(3-methylisoxazolo[5,4-b]pyridin-5-yl)-2-[4-[2-[(1-methylpyrazol-4-yl)amino]pyrimidin-5-yl]phenyl]acetamide]
0.0001 to 10 µM: IC50 [1] | IC50 [2] | GI50 [3]

COc1ncc(NC(=O)Cc2ccc(-c3cnc(Nc4cnn(C)c4)nc3)cc2)cc1Br [Compound P-0118, N-(5-bromo-6-methoxy-3-pyridyl)-2-[4-[2-[(1-methylpyrazol-4-yl)amino]pyrimidin-5-yl]phenyl]acetamide]
0.0001 to 10 µM: IC50 [1] | IC50 [2] | GI50 [3]

COc1ncc(NC(=O)Cc2ccc(-c3cnc(Nc4cnn(C(F)F)c4C)nc3)cc2)cc1C(F)(F)F [Compound P-0039, 2-[4-[2-[[1-(difluoromethyl)-5-methyl-pyrazol-4-yl]amino]pyrimidin-5-yl]phenyl]-N-[6-methoxy-5-(trifluoromethyl)-3-pyridyl]acetamide]
0.0001 to 10 µM: IC50 [1] | IC50 [2] | GI50 [3]

Cn1cc(Nc2ncc(-c3ccc(CC(=O)NCc4cc(F)ccc4Cl)cc3)cn2)cn1 [Compound P-0124, N-[(2-chloro-5-fluoro-phenyl)methyl]-2-[4-[2-[(1-methylpyrazol-4-yl)amino]pyrimidin-5-yl]phenyl]acetamide]
0.0001 to 10 µM: IC50 [1] | IC50 [2] | GI50 [3]

Cn1cc(Nc2ncc(-c3ccc(CC(=O)NCc4c(Cl)cccc4Cl)cc3)cn2)cn1 [Compound P-0123, N-[(2,6-dichlorophenyl)methyl]-2-[4-[2-[(1-methylpyrazol-4-yl)amino]pyrimidin-5-yl]phenyl]acetamide]
0.0001 to 10 µM: IC50 [1] | IC50 [2] | GI50 [3]

Cn1cc(Nc2ncc(-c3ccc(CC(=O)Nc4cc(C(C)(F)F)ccn4)c(F)c3)cn2)cn1 [Compound P-0093, N-[4-(1,1-difluoroethyl)-2-pyridyl]-2-[2-fluoro-4-[2-[(1-methylpyrazol-4-yl)amino]pyrimidin-5-yl]phenyl]acetamide]
0.0001 to 10 µM: IC50 [1] | IC50 [2] | GI50 [3]

Cn1cc(Nc2ncc(-c3ccc(CC(=O)NCc4ccc(C(F)(F)F)cc4)cc3)cn2)cn1 [Compound P-0129, 2-[4-[2-[(1-methylpyrazol-4-yl)amino]pyrimidin-5-yl]phenyl]-N-[[4-(trifluoromethyl)phenyl]methyl]acetamide]
0.0001 to 10 µM: IC50 [1] | IC50 [2] | GI50 [3]

Cn1cc(Nc2ncc(-c3ccc(CC(=O)Nc4cnc(Cl)c(Cl)c4)cc3)cn2)cn1 [Compound P-0116, N-(5,6-dichloro-3-pyridyl)-2-[4-[2-[(1-methylpyrazol-4-yl)amino]pyrimidin-5-yl]phenyl]acetamide]
0.0001 to 10 µM: IC50 [1] | IC50 [2] | GI50 [3]

Cn1cnc(Nc2ncc(-c3ccc(CC(=O)Nc4cnc(Cl)c(C(F)(F)F)c4)cc3)cn2)c1 [Compound P-0148, N-[6-chloro-5-(trifluoromethyl)-3-pyridyl]-2-[4-[2-[(1-methylimidazol-4-yl)amino]pyrimidin-5-yl]phenyl]acetamide]
0.0001 to 10 µM: IC50 [1] | IC50 [2] | GI50 [3]

Cn1cc(Nc2ncc(-c3ccc(CC(=O)Nc4cnc(Cl)c(Br)c4)cc3)cn2)cn1 [Compound P-0117, N-(5-bromo-6-chloro-3-pyridyl)-2-[4-[2-[(1-methylpyrazol-4-yl)amino]pyrimidin-5-yl]phenyl]acetamide]
0.0001 to 10 µM: IC50 [1] | IC50 [2] | GI50 [3]

Cc1ncc(NC(=O)Cc2ccc(-c3cnc(Nc4cn[nH]c4)nc3)c(F)c2)cc1C(F)(F)F [Compound P-0225, 2-[3-fluoro-4-[2-(1H-pyrazol-4-ylamino)pyrimidin-5-yl]phenyl]-N-[6-methyl-5-(trifluoromethyl)-3-pyridyl]acetamide]
0.0001 to 10 µM: IC50 [1] | IC50 [2] | GI50 [3]

COc1cc(-c2cc3cc(-c4ccc(CC(=O)Nc5cnc(OC)c(C(F)(F)F)c5)c(F)c4)cnc3[nH]2)ccn1 [Compound P-0009, 2-[2-fluoro-4-[2-(2-methoxy-4-pyridyl)-1H-pyrrolo[2,3-b]pyridin-5-yl]phenyl]-N-[6-methoxy-5-(trifluoromethyl)-3-pyridyl]acetamide]
0.0001 to 10 µM: IC50 [1] | IC50 [2] | GI50 [3]

COc1ccc(-c2cc3cc(-c4ccc(CC(=O)Nc5cnc(OC)c(C(F)(F)F)c5)cc4F)cnc3[nH]2)cn1 [Compound P-0012, 2-[3-fluoro-4-[2-(6-methoxy-3-pyridyl)-1H-pyrrolo[2,3-b]pyridin-5-yl]phenyl]-N-[6-methoxy-5-(trifluoromethyl)-3-pyridyl]acetamide]
0.0001 to 10 µM: IC50 [1] | IC50 [2] | GI50 [3]

O=C(Cc1ccc(-c2cnc3[nH]c(Cl)cc3c2)cc1F)Nc1cc(C(F)(F)F)ccn1 [Compound P-0040, 2-(4-(2-chloro-1H-pyrrolo[2,3-b]pyridin-5-yl)-2-fluorophenyl)-N-(4-(trifluoromethyl)pyridin-2-yl)acetamide]
0.0001 to 10 µM: IC50 [1] | IC50 [2] | GI50 [3]
